Experiment: xn = mol fraction of the nth substance listed
Conditions: 101 kPa

CCCC[n+]1ccn(C)c1.O=[N+]([O-])[O-] + CCO
viscosity [mPa·s]
Conditions | x2 = 0 | x2 = 0.2 | x2 = 0.4 | x2 = 0.6
283.15 K | 400 | 121 | 46.4 | 18.9
288.15 K | 290 | 93 | 37.8 | 15.9
293.15 K | 210 | 73 | – | 13.5
298.15 K | – | – | 26.1 | 11.6
303.15 K | 121 | 47.1 | 22 | –
308.15 K | 94 | – | 18.8 | 8.84
313.15 K | 74 | – | 16.3 | 7.81
318.15 K | 59.4 | – | – | 6.95
323.15 K | 48.2 | 22.8 | 12.4 | 6.23
328.15 K | 39.6 | 19.6 | 11 | 5.62
333.15 K | 32.9 | 16.9 | 9.8 | 5.1

— a compilation of properties of binary mixtures (doi:10.1016/j.molliq.2014.09.006)
